# Tests used:
# Jurkat [1] = experiment: Hoechst 33342 nuclear staining, Jurkat; type: cell-based, human; settings: 48 h
# Description: (§1) This assay is performed in 96 well tissue culture plates. Appropriate number of cells (adherent cells: 3-5*10^3, suspension cells: 8-10*10^3) are being seeded out in 80 μl complete medium. Adherent cells are incubated for 24 h for proper spreading out before addition of test compounds while suspension cells are immediately treated with test compounds after seeding out. The test compounds are added in 20 μl complete medium containing max 5% DMSO. The final compound concentrations in the assays are 10 μM, 3 μM, 1 μM and 0.3 μM, respectively. […] The assay plates are then further incubated for 30 minutes and subsequently analyzed with a standard inverted fluorescence microscope.
# (§2) The readout allows the determination of the fraction of apoptotic nuclei as well as other morphological criteria specific for apoptosis as a function of the treatment. The following scores are used: 0 relating to no activity, 1 relating to weak activity comprising less than 50% of the cells and score 2 relating to strong activity comprising more than 50% of the cells.
# Jily = experiment: Hoechst 33342 nuclear staining, Jily; type: cell-based; settings: 48 h
# Description: as §1, §2
# PBLs = experiment: Hoechst 33342 nuclear staining, PBLs; type: cell-based; parameters: key: 0 = no activity, 1 = weak (<50% of cells), 2 = strong (>50% of cells); settings: 48 h
# Description: as §1, §2
# HeLa [2] = experiment: Hoechst 33342 nuclear staining, HeLa; type: cell-based, human; settings: 48 h
# Description: as §1, §2
# H460 = experiment: Hoechst 33342 nuclear staining, H460; type: cell-based, human; settings: H460, 48 h
# Description: as §1, §2
# MRC5 = experiment: Hoechst 33342 nuclear staining, MRC5; type: cell-based; parameters: key: 0 = no activity, 1 = weak (<50% of cells), 2 = strong (>50% of cells); settings: MRC5, 48 h
# Description: as §1, §2
# Jurkat [3] = experiment: MTS proliferation assay, Jurkat; type: cell-based, human; settings: 72 h incubation
# Description: (§3) The assay is performed in 96 well tissue culture plates. The cells (range: 1.5*10^3-10^4) are seeded out in 80 μl complete medium 24 h prior to compound treatment. The test compounds are added in 20 μl complete medium containing max 5% DMSO. The final compound concentrations in the assays are 10 μM, 3 μM, 1 μM and 0.3 μM, respectively. The assay plates are incubated for 72 h at culture conditions. The MTS reagent is prepared according to the manufacturer's protocol (Promega G1111). 20 μl MTS reagent are added to each well, the assay plates are quickly spun and incubated for another 3 h at culture conditions. Subsequently, the plates are shortly shaked and absorption measured with a microplate-reader at 492 nm.
# HeLa [4] = experiment: MTS proliferation assay, HeLa; type: cell-based, human; settings: 72 h incubation
# Description: as §3
SMILES,Hoechst 33342 nuclear staining score (Jurkat [1]; conc. 0.3 (μM)),Hoechst 33342 nuclear staining score (Jurkat [1]; conc. 1 (μM)),Hoechst 33342 nuclear staining score (Jurkat [1]; conc. 3 (μM)),Hoechst 33342 nuclear staining score (Jurkat [1]; conc. 10 (μM)),Hoechst 33342 nuclear staining score (Jily; conc. 0.3 (μM)),Hoechst 33342 nuclear staining score (Jily; conc. 1 (μM)),Hoechst 33342 nuclear staining score (Jily; conc. 3 (μM)),Hoechst 33342 nuclear staining score (Jily; conc. 10 (μM)),Hoechst 33342 nuclear staining score (PBLs; conc. 0.3 (μM)),Hoechst 33342 nuclear staining score (PBLs; conc. 1 (μM)),Hoechst 33342 nuclear staining score (PBLs; conc. 3 (μM)),Hoechst 33342 nuclear staining score (PBLs; conc. 10 (μM)),Hoechst 33342 nuclear staining score (HeLa [2]; conc. 0.3 (μM)),Hoechst 33342 nuclear staining score (HeLa [2]; conc. 1 (μM)),Hoechst 33342 nuclear staining score (HeLa [2]; conc. 3 (μM)),Hoechst 33342 nuclear staining score (HeLa [2]; conc. 10 (μM)),Hoechst 33342 nuclear staining score (H460; conc. 0.3 (μM)),Hoechst 33342 nuclear staining score (H460; conc. 1 (μM)),Hoechst 33342 nuclear staining score (H460; conc. 3 (μM)),Hoechst 33342 nuclear staining score (H460; conc. 10 (μM)),also measured
"Cc1ccc(C(=O)Cn2c(-n3ncnc3N)nc3ccccc32)cc1C [Example 1, 3-Amino-2-(1-[3,4-dimethylphenylcarbonylmethyl]benzimidazol-2-yl)-1,2,4-triazole]",2 (score 2 relating to strong activity comprising more than 50% of the cells),2 (score 2 relating to strong activity comprising more than 50% of the cells),2 (score 2 relating to strong activity comprising more than 50% of the cells),2 (score 2 relating to strong activity comprising more than 50% of the cells),2 (score 2 relating to strong activity comprising more than 50% of the cells),2 (score 2 relating to strong activity comprising more than 50% of the cells),2 (score 2 relating to strong activity comprising more than 50% of the cells),2 (score 2 relating to strong activity comprising more than 50% of the cells),0,0,0,0,2 (score 2 relating to strong activity comprising more than 50% of the cells),2 (score 2 relating to strong activity comprising more than 50% of the cells),2 (score 2 relating to strong activity comprising more than 50% of the cells),2 (score 2 relating to strong activity comprising more than 50% of the cells),2 (score 2 relating to strong activity comprising more than 50% of the cells),2 (score 2 relating to strong activity comprising more than 50% of the cells),2 (score 2 relating to strong activity comprising more than 50% of the cells),2 (score 2 relating to strong activity comprising more than 50% of the cells),Hoechst 33342 nuclear staining score (MRC5; conc. 0.3 (μM)): 1 (1 relating to weak activity comprising less than 50% of the cells); Hoechst 33342 nuclear staining score (MRC5; conc. 1 (μM)): 2 (score 2 relating to strong activity comprising more than 50% of the cells); Hoechst 33342 nuclear staining score (MRC5; conc. 3 (μM)): 2 (score 2 relating to strong activity comprising more than 50% of the cells); Hoechst 33342 nuclear staining score (MRC5; conc. 10 (μM)): 2 (score 2 relating to strong activity comprising more than 50% of the cells); IC50 (Jurkat [3]; Homo sapiens): < 100 nM; IC50 (HeLa [4]; Homo sapiens): < 100 nM
"COc1ccc(C(=O)Cn2c(-n3ccc(N)n3)nc3ccccc32)cc1 [Example 2, 5-Amino-2-(1-[4-methoxyphenylcarbonylmethyl]benzimidazol-2-yl)-pyrazole]",0,0,2 (score 2 relating to strong activity comprising more than 50% of the cells),2 (score 2 relating to strong activity comprising more than 50% of the cells),0,2 (score 2 relating to strong activity comprising more than 50% of the cells),2 (score 2 relating to strong activity comprising more than 50% of the cells),2 (score 2 relating to strong activity comprising more than 50% of the cells),0,0,0,2 (score 2 relating to strong activity comprising more than 50% of the cells),0,0,2 (score 2 relating to strong activity comprising more than 50% of the cells),2 (score 2 relating to strong activity comprising more than 50% of the cells),0,0,2 (score 2 relating to strong activity comprising more than 50% of the cells),2 (score 2 relating to strong activity comprising more than 50% of the cells),Hoechst 33342 nuclear staining score (MRC5; conc. 0.3 (μM)): 0; Hoechst 33342 nuclear staining score (MRC5; conc. 1 (μM)): 0; Hoechst 33342 nuclear staining score (MRC5; conc. 3 (μM)): 0; Hoechst 33342 nuclear staining score (MRC5; conc. 10 (μM)): 0
COc1cccc(/C=C/C(=O)Cn2c(-n3ncnc3N)nc3ccccc32)c1 [Example 9],0,0,0,2 (score 2 relating to strong activity comprising more than 50% of the cells),0,0,0,2 (score 2 relating to strong activity comprising more than 50% of the cells),0,0,0,2 (score 2 relating to strong activity comprising more than 50% of the cells),0,0,0,2 (score 2 relating to strong activity comprising more than 50% of the cells),0,0,0,2 (score 2 relating to strong activity comprising more than 50% of the cells),Hoechst 33342 nuclear staining score (MRC5; conc. 0.3 (μM)): 0; Hoechst 33342 nuclear staining score (MRC5; conc. 1 (μM)): 0; Hoechst 33342 nuclear staining score (MRC5; conc. 3 (μM)): 0; Hoechst 33342 nuclear staining score (MRC5; conc. 10 (μM)): 0; IC50 (Jurkat [3]): > 1000 nM; IC50 (HeLa [4]): > 1000 nM
CS(=O)(=O)O.Nc1ccc(C(=O)Cn2c(-n3ncnc3N)nc3ccccc32)cn1 [Example 15],2 (score 2 relating to strong activity comprising more than 50% of the cells),2 (score 2 relating to strong activity comprising more than 50% of the cells),2 (score 2 relating to strong activity comprising more than 50% of the cells),2 (score 2 relating to strong activity comprising more than 50% of the cells),2 (score 2 relating to strong activity comprising more than 50% of the cells),2 (score 2 relating to strong activity comprising more than 50% of the cells),2 (score 2 relating to strong activity comprising more than 50% of the cells),2 (score 2 relating to strong activity comprising more than 50% of the cells),0,0,0,0,2 (score 2 relating to strong activity comprising more than 50% of the cells),2 (score 2 relating to strong activity comprising more than 50% of the cells),2 (score 2 relating to strong activity comprising more than 50% of the cells),2 (score 2 relating to strong activity comprising more than 50% of the cells),2 (score 2 relating to strong activity comprising more than 50% of the cells),2 (score 2 relating to strong activity comprising more than 50% of the cells),2 (score 2 relating to strong activity comprising more than 50% of the cells),2 (score 2 relating to strong activity comprising more than 50% of the cells),Hoechst 33342 nuclear staining score (MRC5; conc. 0.3 (μM)): 1 (1 relating to weak activity comprising less than 50% of the cells); Hoechst 33342 nuclear staining score (MRC5; conc. 1 (μM)): 1 (1 relating to weak activity comprising less than 50% of the cells); Hoechst 33342 nuclear staining score (MRC5; conc. 3 (μM)): 1 (1 relating to weak activity comprising less than 50% of the cells); Hoechst 33342 nuclear staining score (MRC5; conc. 10 (μM)): 1 (1 relating to weak activity comprising less than 50% of the cells)

# From patent US7423157B2, “Substituted benzimidazoles and their use for inducing apoptosis” (Basilea Pharmaceutica AG, priority 2004, dated 2008)
